According to the supplement of paper PMC10307832:

Tests used:
Experiment in all cases: relative viability (nuclei count vs DMSO), 5 days (fraction); higher = more cells survive
[1] = compound: C1CNCCC1C2=CC(=NN2)C3=CC=NC=C3 + Cc1cc(Nc2cc(N3CCN(C)CC3)nc(Sc3ccc(NC(=O)C4CC4)cc3)n2)n[nH]1 [Tozasertib] (partner 0.1 µM)
Outline: (§1)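 Lung cancer cell lines, seeded in 1536-well plates, were treated the following day by pin tool with a single drug or with five library-drug doses (not always all listed) in √10 steps on top of a fixed anchor-drug dose. Cells were fixed and nuclei stained in one step after 5 days, and nuclei were counted. Relative viability is the nuclei count for treated wells divided by that for vehicle wells, reported as medians of duplicate plates.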

Tanzisertib + Bortezomib = compound: O[C@H]1CC[C@H](Nc2ncc3nc(Nc4c(F)cc(F)cc4F)n([C@H]4CCOC4)c3n2)CC1 [Tanzisertib] + CC(C)C[C@H](NC(=O)[C@H](Cc1ccccc1)NC(=O)c1cnccn1)B(O)O [Bortezomib] (partner 0.002 µM)
Outline: as §1

Tanzisertib + Pictilisib = compound: O[C@H]1CC[C@H](Nc2ncc3nc(Nc4c(F)cc(F)cc4F)n([C@H]4CCOC4)c3n2)CC1 [Tanzisertib] + CS(=O)(=O)N1CCN(Cc2cc3nc(-c4cccc5[nH]ncc45)nc(N4CCOCC4)c3s2)CC1 [Pictilisib] (partner 1 µM)
Outline: as §1

Tanzisertib + Olaparib = compound: O[C@H]1CC[C@H](Nc2ncc3nc(Nc4c(F)cc(F)cc4F)n([C@H]4CCOC4)c3n2)CC1 [Tanzisertib] + O=C(c1cc(Cc2n[nH]c(=O)c3ccccc23)ccc1F)N1CCN(C(=O)C2CC2)CC1 [Olaparib] (partner 8 µM)
Outline: as §1

Cell Line | relative viability ([1]; first compound 0.08 µM) | relative viability ([1]; first compound 0.8 µM) | relative viability ([1]; first compound 2.53 µM) | relative viability ([1]; first compound 8 µM) | relative viability (Tanzisertib + Bortezomib; first compound 0.08 µM) | relative viability (Tanzisertib + Bortezomib; first compound 0.253 µM) | relative viability (Tanzisertib + Bortezomib; first compound 0.8 µM) | relative viability (Tanzisertib + Bortezomib; first compound 2.53 µM) | relative viability (Tanzisertib + Bortezomib; first compound 8 µM) | relative viability (Tanzisertib + Pictilisib; first compound 0.08 µM) | relative viability (Tanzisertib + Pictilisib; first compound 0.253 µM) | relative viability (Tanzisertib + Pictilisib; first compound 0.8 µM) | relative viability (Tanzisertib + Pictilisib; first compound 2.53 µM) | relative viability (Tanzisertib + Pictilisib; first compound 8 µM) | relative viability (Tanzisertib + Olaparib; first compound 0.08 µM) | relative viability (Tanzisertib + Olaparib; first compound 0.253 µM) | relative viability (Tanzisertib + Olaparib; first compound 0.8 µM) | relative viability (Tanzisertib + Olaparib; first compound 2.53 µM) | relative viability (Tanzisertib + Olaparib; first compound 8 µM)
NCI-H596 | 0.874 | 1.04 | 0.814 | 1.01 | 1.1 | 0.99 | 1.2 | 0.907 | 1.1 | 0.408 | 0.407 | 0.42 | 0.394 | 0.451 | 0.758 | 0.657 | 0.622 | 0.625 | 0.697
RERF-LC-KJ | 0.525 | 0.51 | 0.591 | 0.426 | 1.17 | 1.01 | 1.04 | 1.07 | 1.02 | 0.634 | 0.606 | 0.571 | 0.511 | 0.458 | 0.997 | 0.925 | 0.942 | 0.94 | 0.912
NCI-H322M | 0.461 | 0.462 | 0.523 | 0.503 | 1.25 | 1.21 | 1.32 | 1.14 | 1.18 | 0.506 | 0.648 | 0.591 | 0.494 | 0.459 | 0.805 | 0.836 | 0.762 | 0.89 | 0.726
COR-L 105 | 0.348 | 0.311 | 0.348 | 0.349 | 0.818 | 0.708 | 0.99 | 0.877 | 0.482 | 0.428 | 0.387 | 0.404 | 0.442 | 0.263 | 0.729 | 0.631 | 0.792 | 0.726 | 0.816
NCI-H1993 | 0.586 | 0.618 | 0.564 | 0.653 | 1.14 | 1.07 | 1.12 | 1.04 | 0.857 | 0.875 | 0.873 | 0.774 | 1.09 | 0.844 | 0.985 | 0.928 | 1.17 | 1.04 | 0.766
NCI-H1437 | 0.412 | 0.415 | 0.417 | 0.421 | 0.663 | 0.648 | 0.479 | 0.531 | 0.393 | 0.445 | 0.492 | 0.452 | 0.486 | 0.565 | 0.634 | 0.647 | 0.669 | 0.652 | 0.619
NCI-H838 | 0.314 | 0.292 | 0.28 | 0.284 | 1.24 | 0.971 | 0.807 | 0.778 | 0.643 | 0.564 | 0.424 | 0.493 | 0.536 | 0.493 | 0.823 | 0.756 | 0.741 | 0.725 | 0.788
NCI-H1666 | 0.59 | 0.7 | 0.693 | 0.755 | 0.75 | 0.732 | 1.03 | 0.872 | 0.909 | 0.494 | 0.588 | 0.414 | 0.546 | 0.439 | 0.754 | 0.801 | 0.747 | 0.729 | 0.768
NCI-H2023 | 0.351 | 0.3 | 0.482 | 0.256 | 1.18 | 1 | 1.06 | 0.855 | 0.371 | 0.259 | 0.197 | 0.246 | 0.243 | 0.233 | 0.523 | 0.47 | 0.497 | 0.44 | 0.452
NCI-H1755 | 0.583 |  | 0.643 | 0.526 | 1.03 | 0.995 | 0.986 | 0.957 | 0.942 | 0.47 | 0.456 | 0.433 | 0.429 | 0.331 | 0.906 | 0.868 | 0.889 | 0.855 | 0.865
NCI-H23 | 0.35 | 0.422 | 0.411 | 0.36 | 1.18 | 0.979 | 0.875 | 1.11 | 1.17 | 0.488 | 0.483 | 0.459 | 0.499 | 0.365 | 0.316 | 0.341 | 0.36 | 0.301 | 0.314
ABC-1 | 0.145 | 0.17 | 0.201 | 0.176 | 0.292 | 0.346 | 0.268 | 0.356 | 0.228 | 0.906 | 0.837 | 0.686 | 0.764 | 0.785 | 0.838 | 0.757 | 0.634 | 0.701 | 0.792
201T | 0.944 | 0.944 | 0.893 | 0.951 | 1.08 | 1.17 | 1.1 | 1.12 | 1.08 | 0.748 | 0.676 | 0.684 | 0.687 | 0.649 | 0.854 | 0.902 | 0.855 | 0.848 | 0.864
NCI-H1734 | 0.27 | 0.279 | 0.269 | 0.271 | 1.04 | 0.936 | 0.856 | 1.02 | 0.881 | 0.534 | 0.405 | 0.45 | 0.454 | 0.382 | 0.66 | 0.626 | 0.604 | 0.671 | 0.687
NCI-H520 | 0.395 | 0.378 | 0.457 | 0.457 | 0.945 | 0.739 | 0.606 | 0.51 | 0.446 | 0.372 | 0.322 | 0.29 | 0.287 | 0.297 | 0.395 | 0.331 | 0.39 | 0.328 | 0.433
NCI-H1650 | 0.393 | 0.446 | 0.433 | 0.392 | 0.192 | 0.217 | 0.201 | 0.195 | 0.182 | 0.656 | 0.538 | 0.666 | 0.586 | 0.438 | 0.807 | 0.778 | 0.882 | 0.671 | 0.662
NCI-H1355 | 0.556 | 0.595 | 0.57 | 0.622 | 1.1 | 1.34 | 1.23 | 1.23 | 1.34 | 0.455 | 0.417 | 0.46 | 0.461 | 0.306 | 0.772 | 0.735 | 0.756 | 0.757 | 0.796
